Test results: patent US10662203B2, “Pyrido[2,3-b]indole compounds for the treatment and prophylaxis of bacterial infection” (Hoffmann-La Roche Inc., priority 2017, dated 2020)
≈ marks a conversion by molar mass, not a printed value. Where two headings read alike, the source gives them in different places.

Assays:
A. baumannii (ATCC17978) = test: 50% growth inhibitory concentration (IC50) determination assay; type: cell-based; conditions: Acinetobacter baumannii, ATCC17978, A. baumannii ATCC17978; Iso-Sensitest broth; 0.098 = detection limit
Summary of the method: (§1)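 Compounds were two-fold serially diluted from 50 to 0.097 μM final in Iso-Sensitest broth, inoculated to ~5×10^5 CFU/mL and incubated at 35±2° C. Growth was followed by OD at 600 nm every 20 minutes for 16 h.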

[1] = test system: K. pneumoniae (ATCC10031); test: as above; type: cell-based; conditions: Klebsiella pneumoniae, Iso-Sensitest broth, 0.098 = detection limit
Summary of the method: as §1

S. aureus (ATCC29213) = test: as above; type: cell-based; conditions: Staphylococcus aureus, Iso-Sensitest broth, 0.098 = detection limit
Summary of the method: as §1

[2] = Cytotoxicity assay (HepG2, CellTiter-Blue cell viability); type: cell-based; conditions: human
Experimental: The cytotoxicity of compounds of present invention was assessed by HepG2 assay. HepG2 cells (ATCC HB-8065™) were seeded into 96-well plates (1.2×10^4 cells per well) and treated with compounds for 3 days, cell viability was measured at day 3 post compound treatment using the CellTiter-Blue® Cell Viability Assay (Promega, Cat. No. G8082). 20 μL of Cell titer blue buffer were added to each well of the cells, which were incubated for 3 hours at 37° C., and the fluorescence value was measured by a plate reader (Molecular Device SpectraMax M2). The CC50 value of each compound is plotted with GraphPad Prism using four parameter logistic equation.

[3] = Lyophilisation solubility assay (LYSA); type: physicochemical; conditions: phosphate buffer, pH 6.5, aqueous buffer, thermodynamic from solid, 0.05 M phosphate buffer, HPLC-UV
Summary of the method: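 Duplicate samples made from 10 mM DMSO stock. DMSO evaporated and the residue taken up in 0.05 M phosphate buffer, pH 6.5, stirred 1 h and shaken 2 h, then left overnight. Filtrate and its 1/10 dilution quantified by HPLC-UV.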

[4] = HepG2 cells, 3 days treatment, "*": the detection limit, read-out: CC50

Row | Compound | IC50 (A. baumannii (ATCC17978)) [µM] | IC50 [1] [µM] | IC50 (S. aureus (ATCC29213)) [µM] | CC50 at 3 days [2, 4] [nM] | CC50 at 3 days [2] [nM] | solubility thermodynamic [3] [µg/mL]
1 | CNc1cc(F)c(F)c2c1[nH]c1ncc(-c3cnc4c(c3)c(=O)c(C(=O)O)cn4CC3COCCN3)c(N(C)C)c12 (stereo not shown) [Example 1.03] | 0.437 | < 0.098 | < 0.098 | 38100 |  | 
2 | CNc1cc(F)c(F)c2c1[nH]c1ncc(-c3cnc4c(c3)c(=O)c(C(=O)O)cn4CC3CCCN3)c(N3CCOCC3)c12 (stereo not shown) [Example 1.11] | 0.847 |  |  | > 100000 |  | 
3 | CCNc1cc(F)cc2c1[nH]c1ncc(-c3cnc4c(c3)c(=O)c(C(=O)O)cn4CC)c(-n3cc(CN)c(C(F)(F)F)n3)c12 [Example 1.15] | 0.403 | < 0.098 | < 0.098 | > 100000 |  | 
4 | CNc1cc(F)c(F)c2c1[nH]c1ncc(-c3cnc4c(c3)c(=O)c(C(=O)O)cn4C)c(N3CCC(F)(CN)C3)c12 (stereo not shown) [Example 1.23] | 0.507 | < 0.098 | < 0.098 | > 100000 |  | 
5 | CNc1cc(F)cc2c1[nH]c1ncc(-c3cnc4c(c3)c(=O)c(C(=O)O)cn4C)c(N3CCC(O)(C(F)(F)F)C3)c12 (stereo not shown) [Example 1.25] |  |  |  | 62600 |  | 
6 | CNCCn1cc(C(=O)O)c(=O)c2cc(-c3cnc4[nH]c5c(NC)cc(F)c(F)c5c4c3N(C)C)cnc21 [Example 1.26] | 0.569 | < 0.098 | < 0.098 | 32500 |  | 
7 | CNc1cc(F)c(F)c2c1[nH]c1ncc(-c3cnc4c(c3)c(=O)c(C(=O)O)cn4C)c(N3CCC(N)(C(F)(F)F)C3)c12 (stereo not shown) [Example 1.27] | 0.602 |  | < 0.098 | 28200 |  | 
8 | CNc1cc(F)c(F)c2c1[nH]c1ncc(-c3cnc4c(c3)c(=O)c(C(=O)O)cn4CC3COCCN3)c(N3CCOCC3)c12 (stereo not shown) [Example 1.31] |  |  |  | 49000 |  | 
9 | CNc1cc(F)c(F)c2c1[nH]c1ncc(-c3cnc4c(c3)c(=O)c(C(=O)O)cn4CC3CCN(C)CC3)c(N(C)C)c12 [Example 1.32] | 0.353 | < 0.098 | < 0.098 | 50100 |  | 
10 | CCNc1cc(F)cc2c1[nH]c1ncc(-c3cnc4c(c3)c(=O)c(C(=O)O)cn4C3CCNC3)c(N3CCOCC3)c12 (stereo not shown) [Example 1.34] |  |  |  | > 100000 |  | 
11 | CNc1cc(F)c(F)c2c1[nH]c1ncc(-c3cnc4c(c3)c(=O)c(C(=O)O)cn4CC(C)(C)O)c(N3CCOCC3)c12 [Example 1.35] | 0.663 | < 0.098 | < 0.098 | 76900 |  | 
12 | CNc1cc(F)cc2c1[nH]c1ncc(-c3cnc4c(c3)c(=O)c(C(=O)O)cn4CC3COCCN3)c(NC)c12 (stereo not shown) [Example 1.37] |  |  |  | 55500 |  | 
13 | CNc1cc(F)c(F)c2c1[nH]c1ncc(-c3cnc4c(c3)c(=O)c(C(=O)O)cn4CC3COCCN3)c(N(C)CCOC)c12 (stereo not shown) [Example 1.41] |  |  |  | 90200 |  | 
14 | CNc1cc(F)c(F)c2c1[nH]c1ncc(-c3cnc4c(c3)c(=O)c(C(=O)O)cn4CC3CNCCO3)c(N3CCOCC3)c12 (stereo not shown) [Example 1.42] |  |  |  | > 100000 |  | 
15 | CNc1cc(F)cc2c1[nH]c1ncc(-c3cnc4c(c3)c(=O)c(C(=O)O)cn4C(C)(CO)CO)c(N3CCOCC3)c12 [Example 1.44] |  |  |  | > 100000 |  | 
16 | CNc1cc(F)cc2c1[nH]c1ncc(-c3cnc4c(c3)c(=O)c(C(=O)O)cn4C(C)CO)c(N3CCOCC3)c12 (stereo not shown) [Example 1.45] | 0.472 | < 0.098 | < 0.098 | > 100000 |  | 
17 | CNc1cc(F)cc2c1[nH]c1ncc(-c3cnc4c(c3)c(=O)c(C(=O)O)cn4C)c(N3CCC(O)C3)c12 (stereo not shown) [Example 1.47] |  |  |  | > 100000 |  | 
18 | CNc1cc(F)c(F)c2c1[nH]c1ncc(-c3cnc4c(c3)c(=O)c(C(=O)O)cn4C(C)CO)c(N3CCOCC3)c12 (stereo not shown) [Example 1.51] | 0.533 | < 0.098 | < 0.098 | > 100000 |  | 
19 | CNc1cc(F)cc2c1[nH]c1ncc(-c3cnc4c(c3)c(=O)c(C(=O)O)cn4C)c(N3CCC(CO)C3)c12 (stereo not shown) [Example 1.54] | 0.461 | < 0.098 | < 0.098 | > 100000 |  | 

Row | Compound | IC50 (A. baumannii (ATCC17978)) [µM] | IC50 [1] [µM] | IC50 (S. aureus (ATCC29213)) [µM] | CC50 at 3 days [2, 4] [nM] | CC50 at 3 days [2] [nM] | solubility thermodynamic [3] [µg/mL]
20 | CNc1cc(F)cc2c1[nH]c1ncc(-c3cnc4c(c3)c(=O)c(C(=O)O)cn4Cc3cnccn3)c(N3CCOCC3)c12 [Example 1.58] | 0.643 |  | < 0.098 | > 100000 |  | 
21 | CNc1cc(F)cc2c1[nH]c1ncc(-c3cnc4c(c3)c(=O)c(C(=O)O)cn4C)c(N3CCC(C)(O)C3)c12 (stereo not shown) [Example 1.59] | 0.658 | < 0.098 | < 0.098 | 27900 |  | 
22 | CNc1c(Cl)c(F)cc2c1[nH]c1ncc(-c3cnc4c(c3)c(=O)c(C(=O)O)cn4C3CCNC3)c(N(C)C)c12 (stereo not shown) [Example 1.68] |  |  |  | 26500 |  | 
23 | CCn1cc(C(=O)O)c(=O)c2cc(-c3cnc4[nH]c5c(NC)cc(F)c(F)c5c4c3N3CC4CC(C3)O4)cnc21 [Example 1.128] |  |  |  |  | 27100 | 
24 | CNc1cc(F)c(F)c2c1[nH]c1ncc(-c3cnc4c(c3)c(=O)c(C(=O)O)cn4C)c(N3CCC4(CN(C)C4)C3)c12 [Example 1.228] |  |  |  | > 100000 |  | 
25 | CNc1cc(F)c(F)c2c1[nH]c1ncc(-c3cnc4c(c3)c(=O)c(C(=O)O)cn4C3CCNC3)c(N3CCO[C@@H](C)C3)c12 (stereo partly shown) [Example 1.251] |  |  |  | > 100000 |  | 
26 | CNc1cc(F)cc2c1[nH]c1ncc(-c3cnc4c(c3)c(=O)c(C(=O)O)cn4NC)c(N3CCC4(C)CN(C)CC34)c12 (stereo not shown) [Example 1.273] | 0.254 | < 0.098 | < 0.098 |  |  | 468 (≈ 820 µM)
27 | CCN1CC2[C@@H](CCN2c2c(-c3cnc4c(c3)c(=O)c(C(=O)O)cn4C)cnc3[nH]c4c(NC)cc(F)c(F)c4c23)C1 (stereo partly shown) [Example 1.279] | 0.215 | < 0.098 | < 0.098 |  |  | 151 (≈ 263 µM)
28 | CCn1cc(C(=O)O)c(=O)c2cc(-c3cnc4[nH]c5c(NC)cc(F)cc5c4c3N3CC[C@H]4CN(C)CC43)cnc21 (stereo partly shown) [Example 1.289] | 0.21 | < 0.098 | < 0.098 |  |  | 113 (≈ 203 µM)
29 | CCNn1cc(C(=O)O)c(=O)c2cc(-c3cnc4[nH]c5c(NC)cc(F)cc5c4c3N3CC[C@H]4CN(C)CC43)cnc21 (stereo partly shown) [Example 1.290] | 0.148 | < 0.098 | < 0.098 |  |  | 247 (≈ 433 µM)
30 | CCNn1cc(C(=O)O)c(=O)c2cc(-c3cnc4[nH]c5c(NC)cc(F)c(F)c5c4c3N3CC[C@H]4CN(C)CC43)cnc21 (stereo partly shown) [Example 1.291] | 0.157 | < 0.098 | < 0.098 |  |  | 138 (≈ 234 µM)
31 | CNc1cc(F)c(F)c2c1[nH]c1ncc(-c3cnc4c(c3)c(=O)c(C(=O)O)cn4NC)c(N3C[C@@H]4CCN(C)[C@@H]4C3)c12 [Example 3.07B] | 0.155 | < 0.098 | 0.122 |  |  | 33 (≈ 57.4 µM)
32 | CNc1cc(F)cc2c1[nH]c1ncc(-c3cnc4c(c3)c(=O)c(C(=O)O)cn4NC)c(N3C[C@H]4CCN(C)[C@H]4C3)c12 [Example 3.17A] | 0.087 | < 0.098 | < 0.098 |  |  | 118 (≈ 212 µM)
33 | CNc1cc(F)cc2c1[nH]c1ncc(-c3cnc4c(c3)c(=O)c(C(=O)O)cn4NC)c(N3C[C@@H]4CCN(C)[C@@H]4C3)c12 [Example 3.17B] | 0.075 | < 0.098 | < 0.098 |  |  | 125 (≈ 225 µM)
34 | CNc1cc(F)cc2c1[nH]c1ncc(-c3cnc4c(c3)c(=O)c(C(=O)O)cn4C)c(N3CC[C@H]4CCN(C)[C@H]4C3)c12 [Example 3.18A] | 0.081 | < 0.098 | < 0.098 |  |  | 172 (≈ 310 µM)
35 | CNc1cc(F)cc2c1[nH]c1ncc(-c3cnc4c(c3)c(=O)c(C(=O)O)cn4C)c(N3CC[C@@H]4CCN(C)[C@@H]4C3)c12 [Example 3.18B] | 0.275 | < 0.098 | 0.133 |  |  | 338 (≈ 608 µM)
36 | CNc1cc(F)cc2c1[nH]c1ncc(-c3cnc4c(c3)c(=O)c(C(=O)O)cn4NC)c(N3C[C@H]4OCCN(C)[C@H]4C3)c12 [Example 3.23A] | 0.865 | < 0.098 | < 0.098 |  |  | 49 (≈ 85.6 µM)
37 | CNc1cc(F)cc2c1[nH]c1ncc(-c3cnc4c(c3)c(=O)c(C(=O)O)cn4NC)c(N3C[C@@H]4OCCN(C)[C@@H]4C3)c12 [Example 3.23B] | 0.789 | < 0.098 | < 0.098 |  |  | 58 (≈ 101 µM)
38 | CNc1cc(F)c(F)c2c1[nH]c1ncc(-c3cnc4c(c3)c(=O)c(C(=O)O)cn4C)c(N3C[C@@H](F)C[C@H]3CN(C)C)c12 [Example 7.01, 6-(4-((2S,4S)-2-((Dimethylamino)methyl)-4-fluoropyrrolidin-1-yl)-5,6-difluoro-8-(methylamino)-9H-pyrido[2,3-b]indol-3-yl)-1-methyl-4-oxo-1,4-dihydro-1,8-naphthyridine-3-carboxylic acid] | 0.28 | < 0.098 | < 0.098 |  |  | 330 (≈ 569 µM)
